From patent US10167288B2, “Substituted pyrazolylpyrazole derivative and use of same as herbicide” (KYOYU AGRI CO., LTD., priority 2015, dated 2019)

Experiments:
Assay type in all cases: in vivo
Digitaria ciliaris [1] = assay: Weed foliar treatment test (Test Example 4); conditions: 10 g a.i./10 a; foliar spray at 4.0 to 5.0 leaf stage of Digitaria ciliaris (plant height 10 cm to 15 cm); 20 days, 25° C.
Method: (§1) 4. Weed Foliar Treatment Test
(§2) Field soil was filled into a 1/4500 are pot followed by seeding with Digitaria ciliaris and Galinsoga parviflora, covering with soil and cultivating in a glass greenhouse at an average atmospheric temperature of 25° C.
(§3) Wettable powders of Target Compound (I) shown in Table 1 prepared in compliance with the preparation examples were diluted with water to the prescribed amount of chemical and uniformly sprayed onto the weeds using 100 liters of sprayed water per 10 are when Digitaria ciliaris had grown to the 4.0 to 5.0 leaf stage (plant height: 10 cm to 15 cm).
(§4) After treating for 20 days in a glass greenhouse at an average atmospheric temperature of 25° C., the herbicidal efficacy thereof was investigated.
(§5) Evaluation of herbicidal efficacy was carried out in the same manner as the above-mentioned Test Example 1.

Galinsoga parviflora = assay: Weed foliar treatment test (Test Example 4); conditions: 10 g a.i./10 a; foliar spray at 4.0 to 5.0 leaf stage of Digitaria ciliaris (plant height 10 cm to 15 cm); 20 days, 25° C.
Method: as §1, §2, §3, §4, §5

Chenopodium album [2] = assay: Weed foliar treatment test (Test Example 3); conditions: foliar spray at 1.0 to 2.0 leaf stage of Digitaria ciliaris, 3 weeks, 25° C.
Method: (§6) 3. Weed Foliar Treatment Test
(§7) Soil was filled into a 1/6000 are pot followed by seeding with Digitaria ciliaris, Chenopodium album and Amaranthus retroflexus, covering with soil, and cultivating in a glass greenhouse at an average atmospheric temperature of 25° C.
as §3, with “150” for “100”, “1.0” for “4.0”, “2.0” for “5.0”, “stage.” for “stage (plant height: 10 cm to 15 cm).”
(§8) After treating for 3 weeks in a glass greenhouse at an average atmospheric temperature of 25° C., the herbicidal efficacy thereof was investigated.
as §5

Digitaria ciliaris [3] = assay: Weed foliar treatment test (Test Example 3); conditions: foliar spray at 1.0 to 2.0 leaf stage of Digitaria ciliaris, 3 weeks, 25° C.
Method: as §6, §7
as §3, with “150” for “100”, “1.0” for “4.0”, “2.0” for “5.0”, “stage.” for “stage (plant height: 10 cm to 15 cm).”
as §8, §5

Amaranthus retroflexus [4] = assay: Weed foliar treatment test (Test Example 3); conditions: foliar spray at 1.0 to 2.0 leaf stage of Digitaria ciliaris, 3 weeks, 25° C.
Method: as §6, §7
as §3, with “150” for “100”, “1.0” for “4.0”, “2.0” for “5.0”, “stage.” for “stage (plant height: 10 cm to 15 cm).”
as §8, §5

Oryza sativa = assay: Paddy herbicidal activity test, phytotoxicity to transplanted rice; conditions: rice transplanted in the 2.0 leaf stage, 30 days, 30° C., vs complete eradication group
Method: (§9) 1. Paddy Herbicidal Activity Test
(§10) Rice paddy soil was filled into a 1/10000 are pot followed by the addition of suitable amounts of water and chemical fertilizer, kneading, seeding with Echinochloa crus-galli, Monochoria vaginalis and Scirpus juncoides and maintaining in an irrigated state at a water depth of 3 cm.
(§11) Wettable powders of Target Compound (I) shown in Table 1 prepared in compliance with the preparation examples were diluted with a suitable amount of water, rice plants in the 2.0 leaf stage were transplanted during 3.5 leaf stage of Echinochloa crus-galli, and treated by dropping in chemical in the prescribed amount per 10 are using a pipette.
(§12) After treating for 30 days in a glass greenhouse at an average atmospheric temperature of 30° C., the herbicidal efficacy thereof was investigated.
(§13) Evaluation of herbicidal efficacy was carried out by comparing growth inhibition rate (%) with an untreated group, while evaluation of phytotoxicity was carried out by comparing growth inhibition rate (%) with the state of a complete eradication group, and were evaluated at 11 levels indicated below.

Scirpus juncoides = assay: Paddy herbicidal activity test; conditions: dropped into paddy water at 3.5 leaf stage of Echinochloa crus-galli, 30 days, 30° C., vs untreated group
Method: as §9, §10, §11, §12, §13

Echinochloa crus-galli = assay: Paddy herbicidal activity test; conditions: dropped into paddy water at 3.5 leaf stage of Echinochloa crus-galli, 30 days, 30° C., vs untreated group
Method: as §9, §10, §11, §12, §13

Monochoria vaginalis = assay: Paddy herbicidal activity test; conditions: dropped into paddy water at 3.5 leaf stage of Echinochloa crus-galli, 30 days, 30° C., vs untreated group
Method: as §9, §10, §11, §12, §13

Chenopodium album [5] = assay: Farming soil treatment test; conditions: soil surface spray prior to weed growth, 30 days, 30° C.
Method: (§14) 2. Farming Soil Treatment Test Field soil was filled into a 1/6000 are pot followed by seeding with Digitaria ciliaris Chenopodium album and Amaranthus retroflexus and covering with soil. Wettable powders of compounds of formula (I) shown in Table 1 prepared in compliance with the preparation examples were diluted with water to the prescribed amount of chemical and uniformly sprayed onto each soil surface layer using 100 liters of sprayed water per 10 are prior to weed growth following seeding. After treating for 30 days in a glass greenhouse at an average atmospheric temperature of 30° C., the herbicidal efficacy thereof was investigated. Evaluation of herbicidal efficacy was carried out in the same manner as the above-mentioned Test Example 1.

Digitaria ciliaris [6] = assay: Farming soil treatment test; conditions: soil surface spray prior to weed growth, 30 days, 30° C.
Method: as §14

Amaranthus retroflexus [7] = assay: Farming soil treatment test; conditions: soil surface spray prior to weed growth, 30 days, 30° C.
Method: as §14

Row | SMILES | herbicidal efficacy, Digitaria ciliaris (Digitaria ciliaris [1]) | herbicidal efficacy, Galinsoga parviflora (Galinsoga parviflora) | herbicidal efficacy, Chenopodium album (Chenopodium album [2]; 5 g a.i./10 a) | herbicidal efficacy, Chenopodium album (Chenopodium album [2]; 10 g a.i./10 a) | herbicidal efficacy, Digitaria ciliaris (Digitaria ciliaris [3]; 5 g a.i./10 a) | herbicidal efficacy, Digitaria ciliaris (Digitaria ciliaris [3]; 10 g a.i./10 a) | herbicidal efficacy, Amaranthus retroflexus (Amaranthus retroflexus [4]; 5 g a.i./10 a) | herbicidal efficacy, Amaranthus retroflexus (Amaranthus retroflexus [4]; 10 g a.i./10 a) | phytotoxicity, Oryza sativa (Oryza sativa; 1 g a.i./10 a) | phytotoxicity, Oryza sativa (Oryza sativa; 5 g a.i./10 a) | herbicidal efficacy, Scirpus juncoides (Scirpus juncoides; 1 g a.i./10 a) | herbicidal efficacy, Scirpus juncoides (Scirpus juncoides; 5 g a.i./10 a) | herbicidal efficacy, Echinochloa crus-galli (Echinochloa crus-galli; 1 g a.i./10 a) | herbicidal efficacy, Echinochloa crus-galli (Echinochloa crus-galli; 5 g a.i./10 a) | herbicidal efficacy, Monochoria vaginalis (Monochoria vaginalis; 1 g a.i./10 a) | herbicidal efficacy, Monochoria vaginalis (Monochoria vaginalis; 5 g a.i./10 a) | herbicidal efficacy, Chenopodium album (Chenopodium album [5]; 5 g a.i./10 a) | herbicidal efficacy, Chenopodium album (Chenopodium album [5]; 10 g a.i./10 a) | herbicidal efficacy, Digitaria ciliaris (Digitaria ciliaris [6]; 5 g a.i./10 a) | herbicidal efficacy, Digitaria ciliaris (Digitaria ciliaris [6]; 10 g a.i./10 a) | other results
1 | CCOC(=O)Nc1c([N+](=O)[O-])cnn1-c1nn2c(c1Cl)CCCC2 [Control agent 2.28, reference compound] | 1 (10% to less than 20%) | 2 (20% to less than 30%) | 6 (60% to less than 70%) | 7 (70% to less than 80%) | 2 (20% to less than 30%) | 4 (40% to less than 50%) | 3 (30% to less than 40%) | 6 (60% to less than 70%) | 0 (0% to less than 10% (growth inhibition rate)) | 1 (10% to less than 20%) | 1 (10% to less than 20%) | 2 (20% to less than 30%) | 1 (10% to less than 20%) | 2 (20% to less than 30%) | 3 (30% to less than 40%) | 4 (40% to less than 50%) | 4 (40% to less than 50%) | 5 (50% to less than 60%) | 1 (10% to less than 20%) | 2 (20% to less than 30%) | herbicidal efficacy, Amaranthus retroflexus (Amaranthus retroflexus [7]; 5 g a.i./10 a): 3 (30% to less than 40%); herbicidal efficacy, Amaranthus retroflexus (Amaranthus retroflexus [7]; 10 g a.i./10 a): 5 (50% to less than 60%)
2 | COC(=O)Nc1c(C#N)cnn1-c1nn2c(c1Cl)CCC2 [Compound 3] | 10 (100%) | 10 (100%) | 10 (100%) | 10 (100%) | 10 (100%) | 10 (100%) | 10 (100%) | 10 (100%) | 1 (10% to less than 20%) | 1 (10% to less than 20%) | 9 (90% to less than 100%) | 10 (100%) | 10 (100%) | 10 (100%) | 10 (100%) | 10 (100%) | 9 (90% to less than 100%) | 10 (100%) | 10 (100%) | 10 (100%) | herbicidal efficacy, Amaranthus retroflexus (Amaranthus retroflexus [7]; 5 g a.i./10 a): 10 (100%); herbicidal efficacy, Amaranthus retroflexus (Amaranthus retroflexus [7]; 10 g a.i./10 a): 10 (100%)
3 | CCOC(=O)Nc1c(C#N)cnn1-c1nn2c(c1Cl)CCCC2 [Compound 1, Ethyl N-(1-(3-chloro-4,5,6,7-tetrahydropyrazolo[1,5-a]pyridin-2-yl)-4-cyanopyrazol-5-yl) Carbamate] | 10 (100%) | 10 (100%) | 10 (100%) | 10 (100%) | 10 (100%) | 10 (100%) | 10 (100%) | 10 (100%) | 1 (10% to less than 20%) | 1 (10% to less than 20%) | 10 (100%) | 10 (100%) | 10 (100%) | 10 (100%) | 10 (100%) | 10 (100%) | 10 (100%) | 10 (100%) | 10 (100%) | 10 (100%) | herbicidal efficacy, Amaranthus retroflexus (Amaranthus retroflexus [7]; 5 g a.i./10 a): 10 (100%); herbicidal efficacy, Amaranthus retroflexus (Amaranthus retroflexus [7]; 10 g a.i./10 a): 10 (100%)
4 | COC(=O)Nc1c(C#N)cnn1-c1nn2c(c1Cl)CCCC2 [Compound 7] | 10 (100%) | 10 (100%) | 10 (100%) | 10 (100%) | 10 (100%) | 10 (100%) | 10 (100%) | 10 (100%) | 1 (10% to less than 20%) | 1 (10% to less than 20%) | 9 (90% to less than 100%) | 10 (100%) | 10 (100%) | 10 (100%) | 10 (100%) | 10 (100%) | 9 (90% to less than 100%) | 10 (100%) | 10 (100%) | 10 (100%) | herbicidal efficacy, Amaranthus retroflexus (Amaranthus retroflexus [7]; 5 g a.i./10 a): 10 (100%); herbicidal efficacy, Amaranthus retroflexus (Amaranthus retroflexus [7]; 10 g a.i./10 a): 10 (100%)
5 | CCSC(=O)Nc1c(C#N)cnn1-c1nn2c(c1Cl)CCCC2 [Compound 11] | 10 (100%) | 10 (100%) |  |  |  |  |  |  |  |  |  |  |  |  |  |  |  |  |  |  | 
6 | CC(C)COC(=O)Nc1c(C#N)cnn1-c1nn2c(c1Cl)CCCC2 [Compound 10] | 10 (100%) | 10 (100%) |  |  |  |  |  |  |  |  |  |  |  |  |  |  |  |  |  |  | 
7 | CCCOC(=O)Nc1c(C#N)cnn1-c1nn2c(c1Cl)CCCC2 [Compound 4] | 10 (100%) | 10 (100%) |  |  |  |  |  |  |  |  |  |  |  |  |  |  |  |  |  |  | 
